Reference: US12617783B2, “Heterocyclic GLP-1R agonists” (BIOMEA FUSION, INC., priority 2024, dated 2026)

Molecular target: T1, human GLP-1R (Homo sapiens, UniProt P43220)
T1 construct: host or cells: HEK293
Test: GLP-1R cAMP assay (Example B1a, HTRF, 30 min at room temperature)
Assay type: cell-based
Details: cAMP accumulation in HEK293 expressing human GLP-1R, no BETP, 30 min room temperature (Method B1a, compounds ID 1-609), Table 1; read-out: EC50
Method in brief: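 Competitive HTRF read-out of cAMP after 30 min room-temperature stimulation, BETP absent, of human GLP-1R-HEK293 cells (1,000/well) in HEPES buffer with 500 μM IBMX and 0.1% BSA. Activation normalised to GLP-1(7-37) positive control. EC50 from 4-parameter non-linear regression.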

T1 sequence (P43220 24-463): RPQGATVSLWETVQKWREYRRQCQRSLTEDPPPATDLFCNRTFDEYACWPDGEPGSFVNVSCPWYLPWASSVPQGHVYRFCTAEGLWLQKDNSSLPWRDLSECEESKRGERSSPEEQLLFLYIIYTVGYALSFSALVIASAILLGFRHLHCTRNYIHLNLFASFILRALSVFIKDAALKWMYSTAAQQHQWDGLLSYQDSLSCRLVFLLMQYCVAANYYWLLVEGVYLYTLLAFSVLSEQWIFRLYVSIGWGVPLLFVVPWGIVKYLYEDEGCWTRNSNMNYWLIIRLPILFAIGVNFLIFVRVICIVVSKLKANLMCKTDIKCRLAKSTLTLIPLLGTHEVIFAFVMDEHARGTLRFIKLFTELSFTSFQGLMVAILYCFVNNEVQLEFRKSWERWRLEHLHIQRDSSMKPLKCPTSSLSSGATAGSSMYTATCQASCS

Structure (SMILES) | EC50
Cc1cc(-n2nc3c(c2-n2ccn(-c4ccc5c(cnn5C)c4F)c2=O)[C@H]2CC[C@@H](C3)N2C(=O)c2cc3cc([C@H]4CCOC5(CC5)C4)ccc3n2[C@@]2(c3noc(=O)[nH]3)C[C@H]2C)cc(C)c1F [Compound 539, 3-((1S,2R)-1-(2-((4R,7S)-3-(3-(4-fluoro-1-methyl-1H-indazol-5-yl)-2-oxo-2,3-dihydro-1H-imidazol-1-yl)-2-(4-fluoro-3,5-dimethylphenyl)-2,4,5,6,7,8-hexahydro-4,7-epiminocyclohepta [c]pyrazole-9-carbonyl)-5-((S)-4-oxaspiro[2.5]octan-7-yl)-1H-indol-1-yl)-2-methylcyclopropyl)-1,2,4-oxadiazol-5 (4H)-one] | ≥ 10 µM
Cc1cc(-n2nc3c(c2-n2ccn(-c4ccc5c(cnn5C)c4F)c2=O)[C@H]2CC[C@@H](C3)N2C(=O)c2cc3cc([C@@H]4CCOC5(CC5)C4)ccc3n2[C@@]2(c3noc(=O)[nH]3)C[C@H]2C)cc(C)c1F [Compound 540, 3-((1S,2R)-1-(2-((4R,7S)-3-(3-(4-fluoro-1-methyl-1H-indazol-5-yl)-2-oxo-2,3-dihydro-1H-imidazol-1-yl)-2-(4-fluoro-3,5-dimethylphenyl)-2,4,5,6,7,8-hexahydro-4,7-epiminocyclohepta [c]pyrazole-9-carbonyl)-5-((R)-4-oxaspiro[2.5]octan-7-yl)-1H-indol-1-yl)-2-methylcyclopropyl)-1,2,4-oxadiazol-5 (4H)-one] | ≥ 10 µM
Cc1cc(-n2nc3c(c2-n2ccn(-c4ccc5c(cnn5C)c4F)c2=O)[C@@H]2CC[C@H](C3)N2C(=O)c2cc3cc([C@@H]4CCOC5(CC5)C4)ccc3n2[C@@]2(c3noc(=O)[nH]3)C[C@H]2C)cc(C)c1F [Compound 541, 3-((1S,2R)-1-(2-((4S,7R)-3-(3-(4-fluoro-1-methyl-1H-indazol-5-yl)-2-oxo-2,3-dihydro-1H-imidazol-1-yl)-2-(4-fluoro-3,5-dimethylphenyl)-2,4,5,6,7,8-hexahydro-4,7-epiminocyclohepta [c]pyrazole-9-carbonyl)-5-((R)-4-oxaspiro[2.5]octan-7-yl)-1H-indol-1-yl)-2-methylcyclopropyl)-1,2,4-oxadiazol-5 (4H)-one] | ≥ 10 µM
Cc1cc(-n2nc3c(c2-n2ccn(-c4ccc5c(cnn5C)c4F)c2=O)[C@@H]2CC[C@H](C3)N2C(=O)c2cc3cc([C@H]4CCOC5(CC5)C4)ccc3n2[C@@]2(c3noc(=O)[nH]3)C[C@H]2C)cc(C)c1F [Compound 542, 3-((1S,2R)-1-(2-((4S,7R)-3-(3-(4-fluoro-1-methyl-1H-indazol-5-yl)-2-oxo-2,3-dihydro-1H-imidazol-1-yl)-2-(4-fluoro-3,5-dimethylphenyl)-2,4,5,6,7,8-hexahydro-4,7-epiminocyclohepta [c]pyrazole-9-carbonyl)-5-((S)-4-oxaspiro[2.5]octan-7-yl)-1H-indol-1-yl)-2-methylcyclopropyl)-1,2,4-oxadiazol-5 (4H)-one] | 1.62 µM
Cc1cc(-n2nc3c(c2-n2ccn(-c4ccc(C(=O)N(C)C5CC5)c(Cl)c4)c2=O)[C@@H]2CCC[C@H](C3)N2C(=O)c2cc3cc([C@H]4CCOC(C)(C)C4)ccc3n2[C@@]2(c3noc(=O)[nH]3)C[C@@H]2C)cc(C)c1F [Compound 543, 2-chloro-N-cyclopropyl-4-[3-[(1S,8R)-12-[5-[(4S)-2,2-dimethyltetrahydropyran-4-yl]-1-[(1S,2S)-2-methyl-1-(5-oxo-4H-1,2,4-oxadiazol-3-yl)cyclopropyl]indole-2-carbonyl]-4-(4-fluoro-3,5-dimethyl-phenyl)-4,5,12-triazatricyclo[6.3.1.02,6]dodeca-2,5-dien-3-yl]-2-oxo-imidazol-1-yl]-N-methyl-benzamide] | ≥ 10 µM
CNC(=O)Cc1ccc(-n2ccn(-c3c4c(nn3-c3cc(C)c(F)c(C)c3)C[C@H]3CCC[C@@H]4N3C(=O)c3cc4cc([C@H]5CCOC(C)(C)C5)ccc4n3[C@@]3(c4noc(=O)[nH]4)C[C@@H]3C)c2=O)cc1 [Compound 544, 2-[4-[3-[(1S,8R)-12-[5-[(4S)-2,2-dimethyltetrahydropyran-4-yl]-1-[(1S,2S)-2-methyl-1-(5-oxo-4H-1,2,4-oxadiazol-3-yl)cyclopropyl]indole-2-carbonyl]-4-(4-luoro-3,5-dimethyl-phenyl)-f4,5,12-triazatricyclo[6.3.1.02,6]dodeca-2,5-dien-3-yl]-2-oxo-imidazol-1-yl]phenyl]-N-methyl-acetamide] | ≥ 10 µM
Cc1cc(-n2nc3c(c2-n2ccn(-c4ccc5c(c4)N(C)C(=O)C54CC4)c2=O)[C@@H]2CCC[C@H](C3)N2C(=O)c2cc3cc([C@H]4CCOC(C)(C)C4)ccc3n2[C@@]2(c3noc(=O)[nH]3)C[C@@H]2C)cc(C)c1F [Compound 545, 3-[(1S,2S)-1-[5-[(4S)-2,2-dimethyltetrahydropyran-4-yl]-2-[(1S,8R)-4-(4-fluoro-3,5-dimethyl-phenyl)-3-[3-(l′-methyl-2′-oxo-spiro[cyclopropane-1,3′-indoline]-6′-yl)-2-oxo-imidazol-1-yl]-4,5,12-triazatricyclo[6.3.1.02,6]dodeca-2,5-diene-12-carbonyl]indol-1-yl]-2-methyl-cyclopropyl]-4H-1,2,4-oxadiazol-5-one] | 0.307 µM
Cc1cc(-n2nc3c(c2-n2ccn(-c4ccc(CS(C)(=O)=O)cc4)c2=O)[C@@H]2CCC[C@H](C3)N2C(=O)c2cc3cc([C@H]4CCOC(C)(C)C4)ccc3n2[C@@]2(c3noc(=O)[nH]3)C[C@@H]2C)cc(C)c1F [Compound 546, 3-[(1S,2S)-1-[5-[(4S)-2,2-dimethyltetrahydropyran-4-yl]-2-[(1S,8R)-4-(4-fluoro-3,5-dimethyl-phenyl)-3-[3-[4-(methylsulfonylmethyl)phenyl]-2-oxo-imidazol-1-yl]-4,5,12-triazatricyclo[6.3.1.02,6]dodeca-2,5-diene-12-carbonyl]indol-1-yl]-2-methyl-cyclopropyl]-4H-1,2,4-oxadiazol-5-one] | ≥ 10 µM
Cc1cc(-n2nc3c(c2-n2ccn(-c4ccc(C(=O)N(C)C5CC5)c(F)c4F)c2=O)[C@@H]2CCC[C@H](C3)N2C(=O)c2cc3cc([C@H]4CCOC(C)(C)C4)ccc3n2[C@@]2(c3noc(=O)[nH]3)C[C@@H]2C)cc(C)c1F [Compound 547, N-cyclopropyl-4-[3-[(1S,8R)-12-[5-[(4S)-2,2-dimethyltetrahydropyran-4-yl]-1-[(1S,2S)-2-methyl-1-(5-oxo-4H-1,2,4-oxadiazol-3-yl)cyclopropyl]indole-2-carbonyl]-4-(4-fluoro-3,5-dimethyl-phenyl)-4,5,12-triazatricyclo[6.3.1.02,6]dodeca-2,5-dien-3-yl]-2-oxo-imidazol-1-yl]-2,3-difluoro-N-methyl-benzamide] | ≥ 10 µM
Cc1cc(-n2nc3c(c2-n2ccn(-c4ccc5c(cnn5C)c4F)c2=O)CN(C(=O)c2cc4cc([C@H]5CCOC(C)(C)C5)ccc4n2[C@@]2(c4noc(=O)[nH]4)C[C@@H]2C)[C@@H](C)CC3)cc(C)c1F [Compound 601, 3-[(1S,2S)-1-[5-[(4S)-2,2-dimethyltetrahydropyran-4-yl]-2-[(6S)-2-(4-fluoro-3,5-dimethyl-phenyl)-3-[3-(4-fluoro-1-methyl-indazol-5-yl)-2-oxo-imidazol-1-yl]-6-methyl-4,6,7,8-tetrahydropyrazolo[4,3-c]azepine-5-carbonyl]indol-1-yl]-2-methyl-cyclopropyl]-4H-1,2,4-oxadiazol-5-one] | ≥ 10 µM
Cc1cc(-n2nc3c(c2-n2ccn(-c4ccc5ccncc5c4F)c2=O)[C@@H]2CCC[C@H](C3)N2S(=O)(=O)c2cc3cc([C@H]4CCOC(C)(C)C4)ccc3n2[C@@]2(c3noc(=O)[nH]3)C[C@@H]2C)cc(C)c1F [Compound 602, 3-[(1S,2S)-1-[5-[(4S)-2,2-dimethyltetrahydropyran-4-yl]-2-[[(1S,8R)-4-(4-fluoro-3,5-dimethyl-phenyl)-3-[3-(8-fluoro-7-isoquinolyl)-2-oxo-imidazol-1-yl]-4,5,12-triazatricyclo[6.3.1.02,6]dodeca-2,5-dien-12-yl]sulfonyl]indol-1-yl]-2-methyl-cyclopropyl]-4H-1,2,4-oxadiazol-5-one] | 1.1 µM
Cc1cc(-n2nc3c(c2-n2ccn(-c4ccc5c(cnn5C)c4F)c2=O)[C@@H]2CCC[C@H](C3)N2S(=O)(=O)c2cc3cc([C@@H]4CCOC5(CC5)C4)ccc3n2[C@]2(c3noc(=O)[nH]3)C[C@@H]2C)cc(C)c1F [Compound 603, 3-[(1R,2S)-1-[2-[[(1S,8R)-4-(4-fluoro-3,5-dimethyl-phenyl)-3-[3-(4-fluoro-1-methyl-indazol-5-yl)-2-oxo-imidazol-1-yl]-4,5,12-triazatricyclo[6.3.1.02,6]dodeca-2,5-dien-12-yl]sulfonyl]-5-[(7R)-4-oxaspiro[2.5]octan-7-yl]indol-1-yl]-2-methyl-cyclopropyl]-4H-1,2,4-oxadiazol-5-one] | ≥ 10 µM
Cc1cc(-n2nc3c(c2-n2ccn(-c4ccc5c(cnn5C)c4F)c2=O)[C@@H]2CCC[C@H](C3)N2S(=O)(=O)c2cc3cc([C@@H]4CCOC5(CC5)C4)ccc3n2[C@@]2(c3noc(=O)[nH]3)C[C@@H]2C)cc(C)c1F [Compound 604, 3-[(1S,2S)-1-[2-[[(1S,8R)-4-(4-fluoro-3,5-dimethyl-phenyl)-3-[3-(4-fluoro-1-methyl-indazol-5-yl)-2-oxo-imidazol-1-yl]-4,5,12-triazatricyclo[6.3.1.02,6]dodeca-2,5-dien-12-yl]sulfonyl]-5-[(7R)-4-oxaspiro[2.5]octan-7-yl]indol-1-yl]-2-methyl-cyclopropyl]-4H-1,2,4-oxadiazol-5-one] | 0.839 µM
Cc1cc(-n2nc3c(c2-n2ccn(-c4ccc5ccncc5c4F)c2=O)[C@@H]2CCC[C@H](C3)N2S(=O)(=O)c2cc3cc([C@H]4CCOC(C)(C)C4)ccc3n2[C@]2(c3noc(=O)[nH]3)C[C@@H]2C)cc(C)c1F [Compound 605, 3-[(1R,2S)-1-[5-[(4S)-2,2-dimethyltetrahydropyran-4-yl]-2-[[(1S,8R)-4-(4-fluoro-3,5-dimethyl-phenyl)-3-[3-(8-fluoro-7-isoquinolyl)-2-oxo-imidazol-1-yl]-4,5,12-triazatricyclo[6.3.1.02,6]dodeca-2,5-dien-12-yl]sulfonyl]indol-1-yl]-2-methyl-cyclopropyl]-4H-1,2,4-oxadiazol-5-one] | ≥ 10 µM
